Assay results reported in patent US20210267872A1, “Delivery Of Cosmetic Agents, Compositions And Use Thereof” (ELC Management LLC, priority 2020, published 2021).

Legend:
[1] = Skin PAMPA study; format: in vitro ADME
Procedure: In vitro delivery of active ingredients in a formulation was evaluated using a skin PAMPA study. Active ingredients and pulverized thin fibers were added to the formulation and tested for permeation using PAMPA SC membrane for polar compounds. The following samples were prepared. Formulations are provided in Table 3 in percentages. • Formula 1 as shown in Table 3. • Formula 2: Formula 1 and 1% of microcrystalline cellulose (9 μm). • Formula 3: Formula 1 and the maximum amount of 1% dispersion (cellulose acetate fibers in water). • Formula 4: Formula 1 and 1% of microcrystalline cellulose (9 μm) and the maximum amount of 1% dispersion (cellulose acetate fibers in water).

[2] = system: MatTek 300 skin; test: Skin penetration study (Franz Cell) using MatTek skin; format: in vitro ADME; settings: for enhancement of penetration of AA2G over control: p value greater than 0.05
Procedure: In a 6-well plate, MatTek 300 skin (a skin modeling constructed by live cells, obtained from MatTek) was placed in well with 2.00 mL of incubation medium (also provide by MatTek). To the top of the skin, 400 ul of the sample was loaded. The skin was then incubated at 37° C. At 3 hours and 6 hours, the incubation medium was collected, and another 2.00 mL of medium was added into the well. The skin was then incubated until 24 hours. Finally, the medium was collected at 24 hours' time point. The collected mediums were filtered through a 0.45 um PTFE syringe filter into HPLC vials. The samples were then submitted to the UPLC study.
Waters ACQUITY H UPLC was used to analyze the collected samples from the penetration study (Franz Cell study).

Compound | permeated amount of AA2G, FIG. 2B ([1]; span over all formulas shown) [μg/cm2] | enhancement of penetration of AA2G over control ([2]; six hours, formula containing cellulose acetate chopped fibers vs control without fiber) [%] | enhancement of penetration of AA2G over control ([2]; three hours, formula containing cellulose acetate chopped fibers vs control without fiber) [%] | enhancement of penetration of AA2G over control (difference) ([2]; twenty-four hours, formula containing cellulose acetate chopped fibers vs control without fiber) | delivery/penetration of AA2G into the skin in the presence of cellulose acetate chopped fibers ([2]; vs formulation without fiber, initial 6 hours after loading) | permeation of caffeine in the presence of chopped fibers compared to the control, FIG. 4B ([1]; composition comprising chopped fibers) | permeating amount of caffeine, FIG. 4A ([1]; six hours, cellulose acetate nanofiber) | percentage % penetration of caffeine compared with AA2G [2] | penetration of caffeine in the presence of cellulose acetate chopped fibers (summary) ([2]; PAMPA) | enhancement of penetration of caffeine by addition of chopped fiber ([2]; human, 6 h) [%]
O=C1O[C@H]([C@@H](O)CO)C(O)=C1O[C@H]1O[C@H](CO)[C@@H](O)[C@H](O)[C@H]1O [AA2G, ascorbic acid 2-glucoside] | 0 to 300 | 30 | 33 | less than 10% | enhanced | – | – | – | – | –
Cn1c(=O)c2c(ncn2C)n(C)c1=O [caffeine] | – | – | – | – | – | doubling | slightly increased | greater than that of AA2G | slightly enhanced | < 10
